Experiments:
Test in all cases: Kinase profiling, 33P ATP filter binding assay
Type in all cases: biochemical
Settings in all cases: 1 micromolar inhibitor concentration, read-out: percentage inhibition
[1] = target: YES1 (Homo sapiens (Human), UniProt P07947)
[2] = target: MKK6 (Homo sapiens (Human), UniProt P52564)
[3] = target: TBK1 (Homo sapiens (Human), UniProt Q9UHD2)
[4] = target: CSK (Homo sapiens (Human), UniProt P41240)
[5] = target: JNK1 (Homo sapiens (Human), UniProt P45983)
[6] = target: MNK1 (Homo sapiens (Human), UniProt Q9BUB5)
Chain of MNK1 (Q9BUB5 whole entry, species assumed): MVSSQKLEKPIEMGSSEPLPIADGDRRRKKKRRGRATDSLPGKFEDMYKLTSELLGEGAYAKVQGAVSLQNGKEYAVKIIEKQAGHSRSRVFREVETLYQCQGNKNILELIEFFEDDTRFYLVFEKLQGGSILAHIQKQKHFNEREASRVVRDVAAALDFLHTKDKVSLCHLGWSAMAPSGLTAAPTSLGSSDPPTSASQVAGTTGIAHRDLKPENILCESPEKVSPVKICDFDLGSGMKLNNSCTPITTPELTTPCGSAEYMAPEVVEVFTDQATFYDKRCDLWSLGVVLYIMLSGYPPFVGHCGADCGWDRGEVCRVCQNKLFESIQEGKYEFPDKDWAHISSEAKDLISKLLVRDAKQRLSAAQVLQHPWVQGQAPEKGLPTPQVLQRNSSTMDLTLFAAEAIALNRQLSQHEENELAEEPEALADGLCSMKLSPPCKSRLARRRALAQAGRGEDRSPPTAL

[7] = target: TTBK2 (Homo sapiens (Human), UniProt Q6IQ55)
Chain of TTBK2 (Q6IQ55 whole entry, species assumed): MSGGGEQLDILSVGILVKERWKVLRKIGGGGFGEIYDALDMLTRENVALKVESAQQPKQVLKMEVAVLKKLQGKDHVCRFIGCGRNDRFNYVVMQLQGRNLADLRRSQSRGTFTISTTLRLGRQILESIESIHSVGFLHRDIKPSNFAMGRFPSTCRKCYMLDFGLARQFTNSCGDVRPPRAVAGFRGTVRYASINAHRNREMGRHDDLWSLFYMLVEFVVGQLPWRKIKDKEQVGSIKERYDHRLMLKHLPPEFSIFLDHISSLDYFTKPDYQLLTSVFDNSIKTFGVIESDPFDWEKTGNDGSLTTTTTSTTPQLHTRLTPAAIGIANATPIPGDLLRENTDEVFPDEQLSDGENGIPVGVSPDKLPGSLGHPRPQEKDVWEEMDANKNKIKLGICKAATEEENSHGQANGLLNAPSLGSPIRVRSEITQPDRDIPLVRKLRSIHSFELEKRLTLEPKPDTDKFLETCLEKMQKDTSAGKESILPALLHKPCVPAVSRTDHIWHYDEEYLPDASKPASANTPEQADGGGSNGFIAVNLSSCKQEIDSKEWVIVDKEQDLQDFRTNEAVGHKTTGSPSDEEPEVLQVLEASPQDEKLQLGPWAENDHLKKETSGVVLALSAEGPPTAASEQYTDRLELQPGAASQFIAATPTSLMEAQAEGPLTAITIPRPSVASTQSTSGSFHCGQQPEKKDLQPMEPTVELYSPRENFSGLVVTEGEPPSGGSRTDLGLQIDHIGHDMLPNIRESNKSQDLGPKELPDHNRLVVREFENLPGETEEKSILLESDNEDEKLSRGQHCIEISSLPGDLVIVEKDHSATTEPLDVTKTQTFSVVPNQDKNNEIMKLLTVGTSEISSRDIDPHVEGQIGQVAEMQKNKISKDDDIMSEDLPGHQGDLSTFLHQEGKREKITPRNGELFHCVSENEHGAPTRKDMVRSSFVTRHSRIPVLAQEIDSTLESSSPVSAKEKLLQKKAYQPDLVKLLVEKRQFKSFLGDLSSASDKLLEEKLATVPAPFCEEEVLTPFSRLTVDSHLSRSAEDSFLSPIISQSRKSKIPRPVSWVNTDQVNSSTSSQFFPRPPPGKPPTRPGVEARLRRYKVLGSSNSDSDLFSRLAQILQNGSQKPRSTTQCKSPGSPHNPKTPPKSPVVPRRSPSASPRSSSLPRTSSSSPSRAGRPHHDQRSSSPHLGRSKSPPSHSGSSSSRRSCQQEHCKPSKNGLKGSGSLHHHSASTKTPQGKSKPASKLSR

[8] = target: ERK5 (Homo sapiens (Human), UniProt Q13164)
[9] = target: LKB1 (Homo sapiens (Human), UniProt Q15831)
[10] = target: PAK2 (Homo sapiens (Human), UniProt Q13177)
[11] = target: ZAP70 (Homo sapiens (Human), UniProt P43403)
Chain of ZAP70 (P43403 whole entry, species assumed): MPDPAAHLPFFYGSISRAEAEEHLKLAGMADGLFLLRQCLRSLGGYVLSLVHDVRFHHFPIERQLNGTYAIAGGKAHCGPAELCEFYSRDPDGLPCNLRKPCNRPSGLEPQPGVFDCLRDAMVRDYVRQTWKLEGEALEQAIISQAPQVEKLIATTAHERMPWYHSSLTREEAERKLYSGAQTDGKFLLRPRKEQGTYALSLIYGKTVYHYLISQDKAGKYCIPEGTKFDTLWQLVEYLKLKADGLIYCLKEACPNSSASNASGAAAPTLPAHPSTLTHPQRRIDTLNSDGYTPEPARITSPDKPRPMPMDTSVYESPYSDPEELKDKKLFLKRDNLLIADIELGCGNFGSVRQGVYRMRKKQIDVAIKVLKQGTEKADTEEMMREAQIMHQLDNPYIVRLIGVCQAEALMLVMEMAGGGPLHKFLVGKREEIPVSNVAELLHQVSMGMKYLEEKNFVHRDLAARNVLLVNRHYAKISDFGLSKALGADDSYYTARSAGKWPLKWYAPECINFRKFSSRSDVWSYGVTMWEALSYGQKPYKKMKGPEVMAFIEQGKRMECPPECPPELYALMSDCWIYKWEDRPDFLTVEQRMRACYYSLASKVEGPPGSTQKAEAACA

[12] = target: IR (Homo sapiens (Human), UniProt P06213)
[13] = target: PAK4 (Homo sapiens (Human), UniProt O96013)
Chain of PAK4 (O96013 whole entry, species assumed): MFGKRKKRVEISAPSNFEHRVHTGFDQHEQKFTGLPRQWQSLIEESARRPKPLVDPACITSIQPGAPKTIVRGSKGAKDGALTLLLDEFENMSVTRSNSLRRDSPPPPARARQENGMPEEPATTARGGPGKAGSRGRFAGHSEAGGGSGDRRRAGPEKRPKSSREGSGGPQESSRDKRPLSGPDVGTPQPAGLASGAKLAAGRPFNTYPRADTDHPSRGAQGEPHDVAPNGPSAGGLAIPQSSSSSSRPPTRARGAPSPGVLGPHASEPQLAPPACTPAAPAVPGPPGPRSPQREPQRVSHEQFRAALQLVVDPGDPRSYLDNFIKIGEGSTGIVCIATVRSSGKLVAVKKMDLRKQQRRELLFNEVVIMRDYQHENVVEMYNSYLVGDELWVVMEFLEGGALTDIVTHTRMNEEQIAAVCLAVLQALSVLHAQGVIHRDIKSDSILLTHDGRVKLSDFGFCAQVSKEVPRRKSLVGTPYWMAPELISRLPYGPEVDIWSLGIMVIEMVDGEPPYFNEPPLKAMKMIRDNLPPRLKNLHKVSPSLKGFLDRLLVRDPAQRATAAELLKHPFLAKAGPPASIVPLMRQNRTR

[14] = target: TTBK1 (Homo sapiens (Human), UniProt Q5TCY1)
[15] = target: PKCy (Homo sapiens (Human), UniProt P05129)
[16] = target: TAO1 (Homo sapiens (Human), UniProt Q7L7X3)
[17] = target: OSR1 (Homo sapiens (Human), UniProt O95747)
[18] = target: PIM1 (Homo sapiens (Human), UniProt P11309)
[19] = target: PKCz (Homo sapiens (Human), UniProt Q05513)
[20] = target: MARK3 (Homo sapiens (Human), UniProt P27448)
[21] = target: MKK1 (Homo sapiens (Human), UniProt Q02750)
[22] = target: DDR2 (Homo sapiens (Human), UniProt Q16832)
[23] = target: ASK1 (Homo sapiens (Human), UniProt Q99683)
[24] = target: MINK1 (Homo sapiens (Human), UniProt Q8N4C8)
[25] = target: WNK1 (Homo sapiens (Human), UniProt Q9H4A3)
[26] = target: PLK1 (Homo sapiens (Human), UniProt P53350)
[27] = target: TAK1 (Homo sapiens (Human), UniProt O43318)
Chain of TAK1 (O43318 1-303): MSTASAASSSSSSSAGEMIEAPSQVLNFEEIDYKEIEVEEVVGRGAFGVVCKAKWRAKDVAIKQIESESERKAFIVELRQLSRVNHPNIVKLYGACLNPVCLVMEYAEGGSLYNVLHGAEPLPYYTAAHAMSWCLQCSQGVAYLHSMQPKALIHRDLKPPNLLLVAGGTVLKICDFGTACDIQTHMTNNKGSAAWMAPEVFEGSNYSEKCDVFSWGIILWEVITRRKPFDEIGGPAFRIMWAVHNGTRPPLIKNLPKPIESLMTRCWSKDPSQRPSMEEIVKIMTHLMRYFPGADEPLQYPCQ

[28] = target: CHK2 (Homo sapiens (Human), UniProt O96017)
[29] = target: IGF-1R (Homo sapiens (Human), UniProt P08069)
[30] = target: MSK1 (Homo sapiens (Human), UniProt O75582)
[31] = target: p38g MAPK (Homo sapiens (Human), UniProt P53778)
[32] = target: DAPK1 (Homo sapiens (Human), UniProt P53355)
[33] = target: EIF2AK3 (Homo sapiens (Human), UniProt Q9NZJ5)
[34] = target: ULK1 (Homo sapiens (Human), UniProt O75385)
[35] = target: SIK3 (Homo sapiens (Human), UniProt Q9Y2K2)
[36] = target: PKBa (Homo sapiens (Human), UniProt P31749)
[37] = target: EPH-A4 (Homo sapiens (Human), UniProt P54764)
[38] = target: S6K1 (Homo sapiens (Human), UniProt P23443)
[39] = target: MAP4K3 (Homo sapiens (Human), UniProt Q8IVH8)
[40] = target: MARK2 (Homo sapiens (Human), UniProt Q7KZI7)
[41] = target: TLK1 (Homo sapiens (Human), UniProt Q9UKI8)
[42] = target: MKK2 (Homo sapiens (Human), UniProt P36507)
Chain of MKK2 (P36507 whole entry, species assumed): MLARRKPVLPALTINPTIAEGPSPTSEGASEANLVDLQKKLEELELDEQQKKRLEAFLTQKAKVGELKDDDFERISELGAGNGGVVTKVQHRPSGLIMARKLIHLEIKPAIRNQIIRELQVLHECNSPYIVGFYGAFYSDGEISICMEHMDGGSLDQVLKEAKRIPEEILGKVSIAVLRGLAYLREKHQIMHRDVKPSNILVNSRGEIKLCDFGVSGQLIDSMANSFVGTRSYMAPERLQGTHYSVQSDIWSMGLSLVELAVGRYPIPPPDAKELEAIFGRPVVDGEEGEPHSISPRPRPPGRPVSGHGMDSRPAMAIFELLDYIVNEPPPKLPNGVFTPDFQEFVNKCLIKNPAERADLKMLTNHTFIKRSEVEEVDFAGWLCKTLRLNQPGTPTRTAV

Chain of YES1 (P07947 whole entry, species assumed): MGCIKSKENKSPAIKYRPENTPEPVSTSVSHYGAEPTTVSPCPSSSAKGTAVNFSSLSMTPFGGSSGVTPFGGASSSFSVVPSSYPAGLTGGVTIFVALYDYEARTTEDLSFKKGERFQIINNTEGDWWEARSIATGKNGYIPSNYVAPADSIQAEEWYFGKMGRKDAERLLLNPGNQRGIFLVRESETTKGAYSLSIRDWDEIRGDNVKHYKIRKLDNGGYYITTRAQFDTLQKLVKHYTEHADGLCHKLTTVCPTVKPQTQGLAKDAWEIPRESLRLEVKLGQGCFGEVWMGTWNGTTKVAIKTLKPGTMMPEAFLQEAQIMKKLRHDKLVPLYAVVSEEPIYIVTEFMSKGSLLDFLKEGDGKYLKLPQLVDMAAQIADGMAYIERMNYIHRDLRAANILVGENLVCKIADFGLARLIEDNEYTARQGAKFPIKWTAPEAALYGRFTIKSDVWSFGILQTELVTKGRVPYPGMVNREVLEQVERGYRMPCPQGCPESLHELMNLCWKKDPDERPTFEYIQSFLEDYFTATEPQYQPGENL
Chain of TBK1 (Q9UHD2 whole entry, species assumed): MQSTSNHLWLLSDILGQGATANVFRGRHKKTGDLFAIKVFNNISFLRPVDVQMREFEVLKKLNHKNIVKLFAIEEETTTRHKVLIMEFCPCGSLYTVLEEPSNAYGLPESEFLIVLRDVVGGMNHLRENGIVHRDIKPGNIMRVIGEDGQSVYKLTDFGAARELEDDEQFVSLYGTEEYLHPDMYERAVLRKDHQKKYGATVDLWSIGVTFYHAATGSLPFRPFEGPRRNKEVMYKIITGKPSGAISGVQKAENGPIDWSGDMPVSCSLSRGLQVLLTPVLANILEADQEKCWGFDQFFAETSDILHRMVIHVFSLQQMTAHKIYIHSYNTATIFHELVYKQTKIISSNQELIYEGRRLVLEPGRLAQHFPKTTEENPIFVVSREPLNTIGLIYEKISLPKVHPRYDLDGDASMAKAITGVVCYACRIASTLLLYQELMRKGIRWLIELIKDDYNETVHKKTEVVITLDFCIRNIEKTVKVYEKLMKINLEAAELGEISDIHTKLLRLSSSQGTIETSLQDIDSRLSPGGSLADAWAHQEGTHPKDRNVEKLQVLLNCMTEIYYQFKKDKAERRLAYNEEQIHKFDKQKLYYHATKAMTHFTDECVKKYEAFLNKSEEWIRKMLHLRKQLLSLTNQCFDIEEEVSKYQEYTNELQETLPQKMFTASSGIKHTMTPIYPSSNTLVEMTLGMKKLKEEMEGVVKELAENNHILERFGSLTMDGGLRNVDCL

`COc1ccc2sc(-c3cncc(NC(C)=O)c3)nc2c1` [4-93, N-(5-(5-Methoxybenzo[d]thiazol-2-yl)pyridin-3-yl)acetamide] showed an inhibition at 1 µM [1] of 0%, an inhibition at 1 µM [2] of 0% and an inhibition at 1 µM [3] of 0%. For the same compound, the inhibition at 1 µM [4] was 0%, the inhibition at 1 µM [5] was 0% and the inhibition at 1 µM [6] was 0%. The inhibition at 1 µM [7] was 0%, the inhibition at 1 µM [8] was 28% and the inhibition at 1 µM [9] was 0%. It also gave an inhibition at 1 µM [10] of 0%, an inhibition at 1 µM [11] of 0% and an inhibition at 1 µM [12] of 0%. For the same compound, the inhibition at 1 µM [13] was 0%, the inhibition at 1 µM [14] was 0% and the inhibition at 1 µM [15] was 0%. For the same compound, the inhibition at 1 µM [16] was 0%, the inhibition at 1 µM [17] was 0% and the inhibition at 1 µM [18] was 2%. For the same compound, the inhibition at 1 µM [19] was 0%, the inhibition at 1 µM [20] was 1% and the inhibition at 1 µM [21] was 0%. For the same compound, the inhibition at 1 µM [22] was 2%, the inhibition at 1 µM [23] was 0% and the inhibition at 1 µM [24] was 0%. The inhibition at 1 µM [25] was 0%, the inhibition at 1 µM [26] was 0% and the inhibition at 1 µM [27] was 52%. The inhibition at 1 µM [28] was 0%, the inhibition at 1 µM [29] was 0% and the inhibition at 1 µM [30] was 0%. For the same compound, the inhibition at 1 µM [31] was 0%, the inhibition at 1 µM [32] was 0% and the inhibition at 1 µM [33] was 0%. For the same compound, the inhibition at 1 µM [34] was 0%, the inhibition at 1 µM [35] was 0% and the inhibition at 1 µM [36] was 0%. The inhibition at 1 µM [37] was 0%, the inhibition at 1 µM [38] was 0% and the inhibition at 1 µM [39] was 0%. It also gave an inhibition at 1 µM [40] of 0%, an inhibition at 1 µM [41] of 0% and an inhibition at 1 µM [42] of 25%.
In the case of `CS(=O)(=O)Nc1cncc(-c2nc3cc(O)ccc3s2)c1` [4-99, N-(5-(5-Hydroxybenzo[d]thiazol-2-yl)pyridin-3-yl)methanesulfonamide], the inhibition at 1 µM [1] is reported as 0%, the inhibition at 1 µM [2] is reported as 0% and the inhibition at 1 µM [3] is reported as 0%. It also gave an inhibition at 1 µM [4] of 0%, an inhibition at 1 µM [5] of 0% and an inhibition at 1 µM [6] of 0%. It also gave an inhibition at 1 µM [7] of 0%, an inhibition at 1 µM [8] of 7% and an inhibition at 1 µM [9] of 0%. The inhibition at 1 µM [10] was 0%, the inhibition at 1 µM [11] was 0% and the inhibition at 1 µM [12] was 0%. For the same compound, the inhibition at 1 µM [13] was 0%, the inhibition at 1 µM [14] was 0% and the inhibition at 1 µM [15] was 0%. It also gave an inhibition at 1 µM [16] of 0%, an inhibition at 1 µM [17] of 0% and an inhibition at 1 µM [18] of 0%. The inhibition at 1 µM [19] was 0%, the inhibition at 1 µM [20] was 0% and the inhibition at 1 µM [21] was 0%. It also gave an inhibition at 1 µM [22] of 0%, an inhibition at 1 µM [23] of 0% and an inhibition at 1 µM [24] of 0%. It also gave an inhibition at 1 µM [25] of 0%, an inhibition at 1 µM [26] of 0% and an inhibition at 1 µM [27] of 8%. For the same compound, the inhibition at 1 µM [28] was 0%, the inhibition at 1 µM [29] was 0% and the inhibition at 1 µM [30] was 0%. The inhibition at 1 µM [31] was 0%, the inhibition at 1 µM [32] was 0% and the inhibition at 1 µM [33] was 0%. For the same compound, the inhibition at 1 µM [34] was 0%, the inhibition at 1 µM [35] was 0% and the inhibition at 1 µM [36] was 0%. It also gave an inhibition at 1 µM [37] of 0%, an inhibition at 1 µM [38] of 0% and an inhibition at 1 µM [39] of 0%. It also gave an inhibition at 1 µM [40] of 0%, an inhibition at 1 µM [41] of 0% and an inhibition at 1 µM [42] of 0%.

Source: US10927106B2, “Benzothiazole derivatives as DYRK1 inhibitors” (PHARMASUM THERAPEUTICS AS, priority 2017, dated 2021)
